Results: publication PMC6154995, “Heme-dependent Inactivation of 5-Aminolevulinate Synthase from Caulobacter crescentus” (Scientific Reports, 2018)

Columns and labels:
Type in all cases: binding
[1] = biological target: T1, 5-aminolevulinate synthase (cALAS) (Caulobacter vibrioides, UniProt Q9A8J8, D214A); assay: UV/Vis titration of apoenzyme with PLP
T1 construct: gene CC_1355; D214A apo-cALAS

[2] = biological target: T2, 5-aminolevulinate synthase (cALAS) (Caulobacter vibrioides, UniProt Q9A8J8); assay: UV/Vis and CD at […] nm; HPLC of PLP from purified enzyme; design: gene CC_1355; recombinant full-length cALAS, C-terminal His6-tag
T2 sequence (Q9A8J8 1-408): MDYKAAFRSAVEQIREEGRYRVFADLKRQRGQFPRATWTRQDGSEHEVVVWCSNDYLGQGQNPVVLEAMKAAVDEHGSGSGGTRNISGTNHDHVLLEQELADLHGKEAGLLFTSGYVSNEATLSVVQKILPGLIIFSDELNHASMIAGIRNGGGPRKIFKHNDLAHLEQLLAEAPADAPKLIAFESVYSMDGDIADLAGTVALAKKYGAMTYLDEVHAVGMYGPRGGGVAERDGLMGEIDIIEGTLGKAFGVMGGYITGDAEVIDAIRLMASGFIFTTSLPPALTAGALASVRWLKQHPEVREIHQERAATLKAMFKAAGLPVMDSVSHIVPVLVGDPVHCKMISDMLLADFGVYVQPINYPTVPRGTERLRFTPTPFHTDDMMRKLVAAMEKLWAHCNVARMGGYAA

[3] = biological target: T3, 5-aminolevulinate synthase (cALAS) (Caulobacter vibrioides, UniProt Q9A8J8, C398A); assay: apparent Kd from spectrophotometric titration; conditions: read-out: KdGly,app /
T3 construct: gene CC_1355; recombinant cALAS C398A, PLP form
T3 sequence (Q9A8J8 1-408 C398A): as the sequence (Q9A8J8 1-408) above, with C398A counted along it

[4] = biological target: T2, 5-aminolevulinate synthase (cALAS); assay: UV/Vis spectrophotometric titration; design: gene CC_1355; recombinant full-length cALAS, PLP form
[5] = biological target: T4, 5-aminolevulinate synthase (cALAS) (Caulobacter vibrioides, UniProt Q9A8J8, C398A/H340A); assay: apparent Kd from spectrophotometric titration; conditions: read-out: KdGly,app /
T4 construct: gene CC_1355; recombinant cALAS H340A/C398A, PLP form
T4 sequence (Q9A8J8 1-408 H340A/C398A): as the sequence (Q9A8J8 1-408) above, with H340A, C398A counted along it

[6] = biological target: T5, 5-aminolevulinate synthase (cALAS) (Caulobacter vibrioides, UniProt Q9A8J8, H340A); assay: apparent Kd from spectrophotometric titration; conditions: read-out: KdGly,app /
T5 construct: gene CC_1355; recombinant cALAS H340A, PLP form
T5 sequence (Q9A8J8 1-408 H340A): as the sequence (Q9A8J8 1-408) above, with H340A counted along it

T1 sequence (Q9A8J8 1-408 D214A): as the sequence (Q9A8J8 1-408) above, with D214A counted along it

Row | Compound | UV/Vis titration of apoenzyme with PLP [1] | UV/Vis and CD at 424 nm; HPLC of PLP from purified enzyme [2] | Kd [3] [mM] | Kd [4] [mM] | Kd [5] [mM] | Kd [6] [mM]
1 | Cc1ncc(COP(=O)(O)O)c(C=O)c1O [pyridoxal 5′-phosphate] | upon PLP titration, cALAS displayed spectral changes supporting internal Schiff-base formation between PLP and Lys248 | a peak for PLP was observed for the PLP form of cALAS |  |  |  | 
2 | NCC(=O)O [glycine] |  |  | 13.6 ± 3.1 | 10.6 ± 1.35 | 6.46 ± 1.5 | 11.5 ± 1.17
